In ChEMBL document CHEMBL1275454, “Assessment of Aspergillus fumigatus burden in pulmonary tissue of guinea pigs by quantitative PCR, galactomannan enzyme immunoassay, and quantitative culture” (2008):
Calls of active or inactive are those of the source. The calls are words filed in the database; no cut-off is given here.

Tests used:
Aspergillus fumigatus [1] = experiment: Antimicrobial activity against Aspergillus fumigatus AF293 infected in hartley guinea pig assessed as decreased fungal burden in lung at 10 mg/kg, po BID after 4 to 6 days postinfection; assay type: functional, organism-based; design: dose 10 mg/kg
Aspergillus fumigatus [2] = experiment: Antimicrobial activity against Aspergillus fumigatus AF293 infected in hartley guinea pig assessed as survival rate at 10 mg/kg, po BID for 8 days postinfection; assay type: functional
Aspergillus fumigatus [3] = experiment: Antimicrobial activity against Aspergillus fumigatus AF293 infected in hartley guinea pig assessed as decreased fungal burden in lung at 10 mg/kg, po BID for 8 days postinfection; assay type: functional, organism-based; design: dose 10 mg/kg
Aspergillus fumigatus [4] = experiment: Antimicrobial activity against Aspergillus fumigatus AF293 infected in hartley guinea pig assessed as time to death at 10 mg/kg, po BID for 8 days postinfection; assay type: functional; details: AF293, in Cavia porcellus, 192 h
Aspergillus fumigatus [5] = experiment: Antimicrobial activity against Aspergillus fumigatus AF293 infected in hartley guinea pig assessed as log reduction in […] fungal burden at 10 mg/kg, po BID after 4 to 7 days postinfection; assay type: functional

C[C@@H](c1ncncc1F)[C@](O)(Cn1cncn1)c1ccc(F)cc1F [VORICONAZOLE] was tested, and the Activity (Aspergillus fumigatus [1]) was “Active”, the Survival (Aspergillus fumigatus [2]) was 9.13 days and the Activity (Aspergillus fumigatus [3]) was “Active”. It also gave a survival at 10 mg/kg (Aspergillus fumigatus [4]) of 62.5% and an FC (Aspergillus fumigatus [5]) of 2.98.
